Results from US6497862B2, “Composition for inhibiting body odor and uses thereof” (Kabushiki Kaisha Hayashibara, priority 2000, dated 2002).
Where “and” joins values, the source holds several entries; their conditions need not be identical. Identical values can stand only once. Marks after values point to notes of the source that are not given here.

How the values were obtained:
[1] = Panel test of body-odor-like smell (KAREI-SHU), 9-hexadecanoic acid heated (Experiment 3); parameters: key: +++: the same or higher level of odor; ++: slightly lower level of odor; +: clearly lower level of odor than the control system; settings: compared with control system
Source text: (§1) Upon the HSG samples, the level of a body-odor-like smell was examined on a panel test consisting of six professional panels; the panels directly smelled the samples from each glass vial and judged the level of the smells for each samples with test saccharides based on the following four ranks, i.e., the same or higher level of odor (+++), slightly lower level of odor (++), clearly lower level of odor (+), and odorless (−) as compared with the control system. Summing up the data from the panels, the samples tested were totally evaluated.
(§2) The content of 2-nonenal in HSG was measured by GC similarly as in Experiment 1 except that 9-hexadecanoic acid or palmitoleic acid was used as a fatty acid and 2-nonenal, a volatile aldehyde, was used as a standard substance. The level of body-odor-like smell, particularly with respect to KAREI-SHU, in each sample was evaluated by panel test in accordance with the method in Experiment 1.

[2] = system: 16 healthy males, ranging from 48 to 75 years old; assay: Test on 16 volunteers: KAREI-SHU aldehydes collected from worn underwears (Experiment 8); format: in vivo, human
Experimental: In accordance with the test on volunteer in Experiment 7, the following experiment was conducted with more volunteers, while focusing particularly on the formation inhibitory effect on KAREI-SHU by trehalose. The number of volunteers used in this experiment was 16 healthy males, ranging from 48 to 75 years old. Cotton-made half-sleeve underwears with substantially the same quality were purchased, washed with only water and dried twice in a cyclic manner for volunteers' use as underwears during the test period. As for towels and gauzes used by volunteers during the test period, those with substantially the same quality were purchased, washed with only water and dried twice in a cyclic manner for use. The initiation day of the test was expressed with day 0, and when the volunteers use body-odor-care-goods such as deodorants and bath salts daily, they were asked to suspend their use two days before the initiation of the test, i.e., day −2.
Until about 10 a.m. on day 0, each volunteer was in a usual manner asked to take a bath to sufficiently wash their bodies including hairs. After bathing, they were sequentially allowed to wipe water drops on the surface of their bodies with towels, allowed to wear the prepared underwears, and allowed to spend their daily life as usual.
At about 5 p.m. on day 1, the underwears worn by the volunteers were collected from them and, as underwears for a […], subjected to the following analysis.
Until 10 a.m. on day 1, each volunteer was allowed to take a bath similarly as done on day 0. Just after bathing, they were allowed to wipe water drops on their body surfaces with towels, and sprayed by a sprayer over upper half parts of their bodies with a 2% (w/w) aqueous trehalose solution, which had been previously prepared and provided to the volunteers, followed by extending the solution to homogeneity over the upper half parts in such a manner of tapping on the surfaces of the parts with gauzes, which had been previously soaked in a fresh preparation of the same solution as above. By repeating the steps of spraying and extending for several times before natural dryness, trehalose was applied over the surfaces of upper half parts of the volunteers. Thereafter, the volunteers were allowed to wear new underwears prepared previously and to spend their daily life as usual.
Until about 10 a.m. on day 2, each volunteer was allowed to take a bath similarly as done on day 0. Just after bathing, the volunteers were applied with trehalose over the surfaces of their upper half parts similarly as done on day 1, then allowed to wear new underwears prepared previously and spend their daily life as usual.
At about 5 p.m. on day 3, the underwears worn by the volunteers were collected from the volunteers and, as underwears for a […], subjected to the following analysis.
The underwears collected from the volunteers in the control and test systems were instantly treated by the method in Experiment 7, followed by collecting in a column volatile aldehydes as DNPH derivatives from the underwears. The DNPH derivatives collected in the column were subjected to analysis according to the method in Experiment 7. Using as standard specimens 2-nonenal, 2-octenal, and 2-hexenal, they were separately subjected to GC analysis under the same conditions as above. Based on the gas chromatograms obtained from the above analyses, the contents (μg) of 2-nonenal, 2-octenal, and 2-hexenal, collected from the underwears in the test and control systems, were respectively determined. Respective data obtained from all the volunteers are in Table 8.
As shown in the data of the control system in Table 8, 2-nonenal, 2-octenal and 2-hexenal, known as substances causative of KAREI-SHU, were particularly detected in the underwears from volunteers age over 56. […]

[3] = Panel test of body-odor-like smell (KAREI-SHU), 9-hexadecanoic acid heated (Experiment 3); parameters: key: +++: the same or higher level of odor; ++: slightly lower level of odor; +: clearly lower level of odor than that of the control system; settings: compared with control system
Source text: as §1, §2

[4] = individual volunteers A-P (age 48-75), 2% (w/w) aqueous trehalose solution on upper half of body

Compound | Evaluation of panel test [1] | Content of 2-Hexenal collected from volunteers' underwears, mean ± standard deviation, with trehalose application ([2]; Age 54 or under (n = 8), control 0.06 ± 0.18) | Content of 2-Nonenal collected from volunteers' underwears, mean ± standard deviation, with trehalose application ([2]; Age 54 or under (n = 8), control 0.19 ± 0.21) | Content of 2-Octenal collected from volunteers' underwears, mean ± standard deviation, with trehalose application ([2]; Age 54 or under (n = 8), control 1.00 ± 1.00, p < 0.05 to control) | Total content of 2-nonenal, 2-octenal and 2-hexenal collected from volunteers' underwears, mean ± standard deviation, with trehalose application ([2]; Age 54 or under (n = 8), control 1.26 ± 1.02, p < 0.05 to control) | Content of 2-Hexenal collected from volunteers' underwears, mean ± standard deviation, with trehalose application ([2]; Age 56 or higher (n = 8), control 5.44 ± 4.39, p < 0.05 to control) | Content of 2-Octenal collected from volunteers' underwears, mean ± standard deviation, with trehalose application ([2]; Age 56 or higher (n = 8), control 5.51 ± 3.71, p < 0.05 to control) | Content of 2-Nonenal collected from volunteers' underwears, mean ± standard deviation, with trehalose application ([2]; Age 56 or higher (n = 8), control 6.61 ± 3.75, p < 0.05 to control) | Total content of 2-nonenal, 2-octenal and 2-hexenal collected from volunteers' underwears, mean ± standard deviation, with trehalose application ([2]; Age 56 or higher (n = 8), control 17.17 ± 10.14, p < 0.01 to control) | Content of volatile aldehydes collected from volunteer, 2-Hexenal, with trehalose application (test system) [2, 4] | Content of volatile aldehydes collected from volunteer, 2-Octenal, with trehalose application (test system) [2, 4] | Content of volatile aldehydes collected from volunteer, Nonenal, with trehalose application (test system) [2, 4] | Content of volatile aldehydes collected from volunteer, Total of 2-nonenal, 2-octenal and 2-hexenal, with trehalose application (test system) [2, 4] | Evaluation of panel test [3]
OC[C@H]1O[C@H](O[C@H]2O[C@H](CO)[C@@H](O)[C@H](O)[C@H]2O)[C@H](O)[C@@H](O)[C@@H]1O [Trehalose, trehalose] | + | 0.09 ± 0.24^ μg | 0.19 ± 0.40^ μg | 0.21 ± 0.36^a μg | 0.48 ± 0.50^a μg | 0.71 ± 1.65^a μg | 2.59 ± 1.92^a μg | 2.11 ± 1.87^a μg | 5.40 ± 4.66^b μg | 0.00 μg (13×) and 0.68 μg and 0.95 μg and 4.70 μg | 0.24 μg and 0.28 μg and 1.04 μg and 0.00 μg (5×) and 1.82 μg and 1.07 μg and 2.59 μg and 1.13 μg and 5.43 μg and 4.24 μg and 4.42 μg and 0.11 μg | 0.17 μg and 0.00 μg (6×) and 0.18 μg and 1.17 μg and 1.66 μg and 1.10 μg and 1.41 μg and 0.35 μg and 2.71 μg and 4.65 μg and 4.99 μg | 0.41 μg and 0.97 μg and 1.04 μg and 0.18 μg and 1.17 μg and 3.48 μg and 1.10 μg and 1.07 μg and 4.96 μg and 1.47 μg and 8.14 μg and 8.89 μg and 14.12 μg and 0.00 μg (2×) and 0.11 μg | 
OC[C@@H](O)[C@@H](O[C@H]1O[C@H](CO)[C@@H](O)[C@H](O)[C@H]1O)[C@H](O)[C@@H](O)CO [Maltitol, maltitol] | + |  |  |  |  |  |  |  |  |  |  |  |  | 
OC[C@H]1O[C@@](CO)(O[C@H]2O[C@H](CO)[C@@H](O)[C@H](O)[C@H]2O)[C@@H](O)[C@@H]1O [Sucrose, sucrose] |  |  |  |  |  |  |  |  |  |  |  |  |  | +++
